# Key:
# Assay in all cases: ≥ marks a high value that may be exact or a test limit, other limits are often not marked, values filed in µg/mL are converted to µM
# [1] = system: Escherichia coli ATCC 25922
# [2] = system: Bacillus subtilis ATCC 23857
# [3] = system: Candida albicans ATCC 10231
# [4] = system: Staphylococcus aureus USA 300
# [5] = system: Klebsiella pneumoniae ATCC 700603
# [6] = system: Pseudomonas aeruginosa ATCC 9027
# [7] = system: Staphylococcus aureus ATCC 25923
# Staphylococcus aureus = system: Staphylococcus aureus
# Micrococcus luteus = system: Micrococcus luteus
# Bacillus subtilis 168 = system: Bacillus subtilis 168
# [8] = system: Bacillus subtilis ATCC 6633
# Candida albicans = system: Candida albicans
# [9] = system: Pseudomonas aeruginosa ATCC 27853
# [10] = system: Enterococcus faecalis ATCC 29212
# [11] = system: Staphylococcus epidermidis ATCC 12228
# [12] = system: Acinetobacter baumannii ATCC 19606
# Escherichia coli = system: Escherichia coli
# [13] = system: Klebsiella pneumoniae ATCC 13883
# [14] = system: Pseudomonas aeruginosa PAO1
# [15] = system: Salmonella enterica subsp. enterica serovar Typhimurium C77-31
# [16] = system: Salmonella enterica subsp. enterica serovar Pullorum C79-13
# [17] = system: Staphylococcus aureus ATCC 29213
compound,measurement,setting,value
CC[C@H](C)[C@H](NC(=O)CNC(=O)[C@H](C)NC(=O)[C@@H](NC(=O)[C@@H](NC(=O)CN)[C@@H](C)CC)[C@@H](C)CC)C(=O)N[C@@H](C)C(=O)N[C@H](C(=O)N[C@@H](CCCCN)C(=O)N[C@H](C(=O)N[C@@H](CCCCN)C(=O)N[C@@H](CCCCN)C(N)=O)[C@@H](C)CC)[C@@H](C)CC [GIIAGIAIKIKK],MIC,[1],64 µM
same,MIC,[2],≥ 32 µM
CC(C)C[C@H](NC(=O)[C@H](CC(C)C)NC(=O)[C@H](CCCN=C(N)N)NC(=O)[C@H](CCCN=C(N)N)NC(=O)[C@H](CC(C)C)NC(=O)[C@@H](N)CC(C)C)C(=O)N[C@@H](CCCN=C(N)N)C(=O)N[C@@H](CCCN=C(N)N)C(N)=O [LLRRLLRR],MIC,[2],≥ 57.1 µM
same,MIC,[3],114 µM
CC[C@H](C)[C@H](NC(=O)[C@H](C)NC(=O)[C@H](CCCCN)NC(=O)[C@H](C)N)C(=O)N[C@H](C(=O)N[C@@H](CCCN=C(N)N)C(=O)N[C@H](C(=O)N[C@H](C(=O)N[C@@H](CCC(=O)O)C(=O)N[C@@H](CCC(N)=O)C(=O)N[C@@H](C)C(=O)N1CCC[C@H]1C(=O)N[C@@H](CCCCN)C(=O)N[C@H](C(=O)N[C@@H](C)C(=O)N[C@@H](CCCCN)C(=O)N[C@@H](C)C(=O)N[C@@H](CCCCN)C(=O)N[C@@H](CCCCN)C(=O)N[C@@H](CO)C(=O)O)[C@@H](C)O)[C@@H](C)CC)[C@@H](C)O)C(C)C [AKAIVRTIEQAPKTAKAKKS],MIC,[4],≥ 128 µM
CC[C@H](C)[C@H](NC(=O)[C@H](CCCN=C(N)N)NC(=O)[C@H](CCCN=C(N)N)NC(=O)[C@H](C)NC(=O)[C@@H](NC(=O)[C@H](C)NC(=O)[C@H](CC(C)C)NC(=O)[C@H](CC(C)C)NC(=O)[C@H](C)NC(=O)[C@H](CCCN=C(N)N)NC(=O)[C@H](CC(C)C)NC(=O)[C@H](CC(N)=O)NC(=O)[C@@H](N)CC(C)C)C(C)C)C(=O)N[C@@H](CC(C)C)C(N)=O [LNLRALLAVARRIL],MIC,[5],16 µM
same,MIC,[1],4 µM
same,MIC,[6],8 µM
same,MIC,[2],4 µM
same,MIC,[7],4 µM
CC(C)C[C@H](NC(=O)[C@H](CC(=O)O)NC(=O)[C@H](CC(N)=O)NC(=O)[C@H](C)NC(=O)[C@H](CC(N)=O)NC(=O)[C@H](CC(=O)O)NC(=O)[C@@H](N)C(C)C)C(=O)N[C@@H](CC(C)C)C(=O)N[C@@H](CO)C(=O)N[C@@H](CCCCN)C(=O)N[C@H](C(=O)N[C@@H](CCCCN)C(=O)N[C@@H](CCCCN)C(=O)N[C@@H](CC(=O)O)C(=O)N[C@@H](CCCCN)C(=O)N[C@@H](CO)C(=O)N[C@@H](CC(=O)O)C(=O)O)C(C)C [VDNANDLLSKVKKDKSD],MIC,[1],4.39 µM
same,MIC,Staphylococcus aureus,8.26 µM
same,MIC,Micrococcus luteus,4.39 µM
same,MIC,Bacillus subtilis 168,1.11 µM
CC[C@H](C)[C@H](NC(=O)CNC(=O)[C@H](CC(C)C)NC(=O)[C@H](CO)NC(=O)[C@H](CCC(=O)O)NC(=O)[C@H](CCSC)NC(=O)[C@H](CCCCN)NC(=O)[C@H](C)NC(=O)[C@H](CCCCN)NC(=O)[C@H](CC(=O)O)NC(=O)[C@@H](NC(=O)[C@@H](N)C(C)C)[C@@H](C)CC)C(=O)N[C@H](C(=O)N[C@@H](CO)C(=O)N[C@@H](CCCN=C(N)N)C(=O)N[C@@H](CC(=O)O)C(=O)N[C@H](C(=O)N[C@H](C(=O)O)[C@@H](C)O)[C@@H](C)O)[C@@H](C)O [VIDKAKMESLGITSRDTT],MIC,[1],15.9 µM
same,MIC,Staphylococcus aureus,15.9 µM
same,MIC,Micrococcus luteus,7.94 µM
same,MIC,Bacillus subtilis 168,7.94 µM
CC[C@H](C)[C@H](NC(=O)[C@H](CCC(=O)O)NC(=O)[C@H](CCCCN)NC(=O)[C@H](CCSC)NC(=O)[C@H](CCCCN)NC(=O)[C@H](C)NC(=O)[C@H](CC(C)C)NC(=O)[C@H](Cc1ccccc1)NC(=O)[C@H](C)NC(=O)[C@H](CCC(N)=O)NC(=O)[C@H](CC(C)C)NC(=O)[C@H](CCCN=C(N)N)NC(=O)CN)C(=O)N[C@@H](C)C(=O)N[C@@H](C)C(=O)N[C@@H](CCC(N)=O)C(=O)N[C@H](C(=O)N[C@@H](CC(C)C)C(N)=O)[C@@H](C)O [GRLQAFLAKMKEIAAQTL],MIC,[8],2.22 µM
same,MIC,[1],4.44 µM
same,MIC,Candida albicans,1.77 µM
same,MIC,[9],7.1 µM
CC(C)C[C@H](NC(=O)[C@H](C)NC(=O)[C@@H](NC(=O)[C@H](CCCCN)NC(=O)[C@H](C)NC(=O)[C@H](CCCN=C(N)N)NC(=O)[C@H](CCCCN)NC(=O)[C@H](CC(C)C)NC(=O)[C@H](C)NC(=O)CN)[C@@H](C)O)C(N)=O [GALKRAKTAL],MIC,[5],> 512 µM
same,MIC,[1],> 512 µM
same,MIC,[2],≥ 512 µM
same,MIC,[10],> 512 µM
same,MIC,[7],> 512 µM
same,MIC,[11],> 512 µM
same,MIC,[12],> 512 µM
same,MIC,[9],> 512 µM
CC[C@H](C)[C@H](NC(=O)[C@H](CCCCN)NC(=O)[C@H](CCCCN)NC(=O)[C@H](C)NC(=O)[C@@H](NC(=O)[C@H](C)NC(=O)[C@H](C)NC(=O)[C@H](CC(C)C)NC(=O)[C@H](C)NC(=O)[C@H](CCCCN)NC(=O)[C@H](CC(C)C)NC(=O)[C@H](CC(N)=O)NC(=O)[C@@H](N)CC(C)C)C(C)C)C(=O)N[C@@H](CC(C)C)C(N)=O [LNLKALAAVAKKIL],MIC,[5],16 µM
same,MIC,Escherichia coli,8 µM
same,MIC,[2],8 µM
same,MIC,[7],16 µM
CC(C)C[C@H](NC(=O)[C@H](CC(C)C)NC(=O)[C@H](CCCCN)NC(=O)CNC(=O)[C@H](CC(C)C)NC(=O)[C@H](CC(C)C)NC(=O)[C@H](CO)NC(=O)[C@H](CC(C)C)NC(=O)[C@H](CC(C)C)NC(=O)[C@H](CC(C)C)NC(=O)[C@H](CO)NC(=O)[C@H](CC(C)C)NC(=O)CN)C(N)=O [GLSLLLSLLGKLL],MIC,[1],> 25 µM
same,MIC,[13],25 µM
same,MIC,[14],> 25 µM
same,MIC,[4],1.6 µM
CC[C@H](C)[C@H](NC(=O)CN)C(=O)N[C@H](C(=O)N[C@@H](CCCCN)C(=O)NCC(=O)N[C@H](C(=O)N[C@H](C(=O)N[C@@H](CCCCN)C(=O)N[C@@H](CCCCN)C(=O)N[C@H](C(=O)N[C@H](C(=O)N[C@@H](CCCCN)C(N)=O)[C@@H](C)CC)[C@@H](C)CC)[C@@H](C)CC)[C@@H](C)CC)[C@@H](C)CC [GIIKGIIKKIIK],MIC,[1],64 µM
same,MIC,[2],8 µM
CC(C)C[C@H](NC(=O)[C@@H](NC(=O)[C@@H](NC(=O)[C@@H](N)CC(C)C)C(C)C)[C@@H](C)O)C(=O)N[C@H](C(=O)N[C@@H](Cc1ccccc1)C(=O)N[C@H](C(=O)NCC(=O)NCC(=O)NCC(=O)N[C@@H](Cc1c[nH]c2ccccc12)C(=O)N[C@@H](CCCCN)C(=O)N[C@@H](Cc1c[nH]c2ccccc12)C(=O)N[C@@H](CCCCN)C(=O)N[C@@H](Cc1c[nH]c2ccccc12)C(=O)N[C@@H](CCC(=O)O)C(=O)N[C@@H](CC(N)=O)C(=O)NCC(=O)N[C@@H](CCCCN)C(=O)N[C@@H](Cc1c[nH]c2ccccc12)C(=O)N[C@@H](CCCCN)C(=O)N[C@@H](Cc1c[nH]c2ccccc12)C(=O)N[C@@H](CCCCN)C(=O)N[C@@H](Cc1c[nH]c2ccccc12)C(=O)O)C(C)C)C(C)C [LVTLVFVGGGWKWKWENGKWKWKW],MIC,[1],64 µM
same,MIC,[15],≥ 128 µM
same,MIC,[16],≥ 128 µM
same,MIC,[17],> 128 µM
same,MIC,[10],8 µM
same,MIC,[11],> 128 µM
CC[C@H](C)[C@H](NC(=O)[C@H](CCCN=C(N)N)NC(=O)[C@H](CCCCN)NC(=O)[C@H](Cc1ccccc1)NC(=O)[C@H](Cc1ccccc1)NC(=O)CN)C(=O)N[C@@H](CCCN=C(N)N)C(=O)N[C@H](C(=O)N[C@@H](Cc1ccccc1)C(=O)N[C@@H](Cc1ccccc1)C(N)=O)[C@@H](C)O [GFFKRIRTFF],MIC,[5],32 µM
same,MIC,[1],32 µM
same,MIC,[2],16 µM
same,MIC,[10],64 µM
same,MIC,[7],16 µM
same,MIC,[11],64 µM
same,MIC,[12],64 µM
same,MIC,[9],4 µM
CC[C@H](C)[C@H](NC(=O)[C@H](CCCCN)NC(=O)[C@H](CCCCN)NC(=O)[C@H](C)NC(=O)[C@@H](NC(=O)[C@H](CCCCN)NC(=O)[C@H](CC(C)C)NC(=O)[C@H](CC(C)C)NC(=O)[C@H](CCCCN)NC(=O)[C@H](CCCCN)NC(=O)[C@H](CC(C)C)NC(=O)[C@H](CC(N)=O)NC(=O)[C@@H](N)CC(C)C)C(C)C)C(=O)N[C@@H](CC(C)C)C(N)=O [LNLKKLLKVAKKIL],MIC,[5],8 µM
same,MIC,[1],8 µM
same,MIC,[6],4 µM
same,MIC,[2],4 µM
same,MIC,[7],16 µM

# From DBAASP
